# Measured values: patent publication US11999707B1, “N′-(2-(5-(4-chlorophenyl)-1,3,4-oxadiazol-2-ylthio)acetoxy)-1-naphthimidamide as an antimicrobial compound” (KING FAISAL UNIVERSITY, priority 2023, dated 2024)
# Assays:
# Type in all cases: cell-based
# [1] = tested on: Aspergillus flavus; experiment: Agar plate disc-diffusion, antifungal, Aspergillus flavus; settings: Fungal
# Description: (§1) The agar plate disc-diffusion method was applied. […] The discs were then placed onto the surface of agar plates (nutrient agar for bacteria and Sabouraud's dextrose agar for fungi) seeded with the test organism. Each plate contained 15 mL of the agar medium, previously seeded with 0.2 mL of the broth culture of each organism pregrown for 18 hours. The plates were incubated at 37° C. for 48 hours and 72 hours for fungi. The inhibition zones were measured in mm. Discs impregnated with DMSO were used as a control, and their inhibition zone was subtracted from the tested compound's actual inhibition zone.
# [2] = tested on: Bacillus cereus; experiment: Agar plate disc-diffusion, antibacterial, Bacillus cereus; settings: Gram positive
# Description: as §1
# [3] = tested on: Staphylococcus aureus; experiment: Agar plate disc-diffusion, antibacterial, Staphylococcus aureus; settings: Gram positive
# Description: as §1
# [4] = tested on: Chrysosporium keratinophilum; experiment: Agar plate disc-diffusion, antifungal, Chrysosporium keratinophilum; settings: Fungal
# Description: as §1
# [5] = tested on: Escherichia coli; experiment: Agar plate disc-diffusion, antibacterial, Escherichia coli; settings: Gram negative
# Description: as §1
# [6] = tested on: Pseudomonas aeruginosa; experiment: Agar plate disc-diffusion, antibacterial, Pseudomonas aeruginosa; settings: Gram negative
# Description: as §1
# [7] = A = concentration of comp. = 10,000 μL
# [8] = B = concentration of comp. = 30,000 μL
# [9] = C = concentration of comp. = 50,000 μL
structure (smiles),measurement,setting,value
"N/C(=N\OC(=O)CSc1nnc(-c2ccc(Cl)cc2)o1)c1cccc2ccccc12 [compound 3, N′-(2-(5-(4-chlorophenyl)-1,3,4-oxadiazol-2-ylthio)acetoxy)-1-naphthimidamide]","inhibition zone, Aspergillus flavus, A",[1]; [7],24 mm
same,"inhibition zone, Aspergillus flavus, B",[1]; [8],27 mm
same,"inhibition zone, Aspergillus flavus, C",[1]; [9],36 mm
same,"inhibition zone, Bacillus Cereus, A",[2]; [7],22 mm
same,"inhibition zone, Bacillus Cereus, B",[2]; [8],25 mm
same,"inhibition zone, Bacillus Cereus, C",[2]; [9],34 mm
same,"inhibition zone, Staphylococcus aureus, A",[3]; [7],27 mm
same,"inhibition zone, Staphylococcus aureus, B",[3]; [8],30 mm
same,"inhibition zone, Staphylococcus aureus, C",[3]; [9],38 mm
same,"inhibition zone, Chrysosporium keratinophilum, A",[4]; [7],22 mm
same,"inhibition zone, Chrysosporium keratinophilum, B",[4]; [8],28 mm
same,"inhibition zone, Chrysosporium keratinophilum, C",[4]; [9],39 mm
same,"inhibition zone, Escherichia coli, A",[5]; [7],26 mm
same,"inhibition zone, Escherichia coli, B",[5]; [8],32 mm
same,"inhibition zone, Escherichia coli, C",[5]; [9],50 mm
same,"inhibition zone, Pseudomonas aeruginosa, A",[6]; [7],26 mm
same,"inhibition zone, Pseudomonas aeruginosa, B",[6]; [8],28 mm
same,"inhibition zone, Pseudomonas aeruginosa, C",[6]; [9],45 mm
